Test results as given in patent publication US20230210999A1, “TARGETED PROTEASE DEGRADATION (TED) PLATFORM” (EUBULUS BIOTHERAPEUTICS INC., priority 2020, published 2023).
Read-outs that look alike come from different tables or passages of the source.

Legend:
Assay type in all cases: cell-based, human
MV4;11 cells = test: Cell proliferation experiment (Alamar blue, 72 h), MV4;11; settings: read-out: Inhibitory activity IC50 on MV4;11
Procedure: (§1) Reagents: RPMI-1640 medium, McCoy's 5A medium, IMDM medium, MEM medium, L-15 medium, fetal bovine serum. Penicillin-Streptomycin double antibody, trypsin, etc., 2-mercaptoethanol, NEAA, pyruvate, etc.
(§2) The cells were cultured in conventional ways, and the cells should be passed at least 2 generations before plating. Cells at the logarithmic growth phase were collected, prepared into single cell suspensions and counted. The concentration of cells was adjusted to the desired concentration, and cells were inoculated into a 96-well cell culture plate at 100 μl per well. 100 μL of complete medium of the test compound were added to each well, set up 2 duplicate wells for each concentration, and diluted with a 5-fold gradient, and continued to culture for 72 h. All cells were subjected to IC50 test for corresponding samples. The experimental results are shown in Test Example 4.
(§3) The fluorescence intensity of each well was detected using the Alarm blue method, and IC50 was calculated.
(§4) IC50 was calculated according to the following formula:
(§5) Y=Max+(Min−Max)/[1+(X/IC50)×Slope]
(§6) wherein Min, Max and Slope represent the minimum, maximum and slope respectively.

Daudi cells = test: Cell proliferation experiment, Daudi; settings: Daudi cells, read-out: Inhibitory activity IC50 on Daudi
Procedure: as §1, §2, §3, §4, §5, §6

NCIH82 cells = test: Cell proliferation experiment, NCI-H82; settings: read-out: Inhibitory activity IC50 on NCI-H82
Procedure: as §1, §2, §3, §4, §5, §6

[1] = Homo sapiens, MV4-11, MV4;11 cells
[2] = Homo sapiens, NCI-H82, NCI-H82 cells

Structure (SMILES) | IC50 (MV4;11 cells; [1]) | IC50 (Daudi cells; Homo sapiens, Daudi) | IC50 (NCIH82 cells; [2]) | IC50 (MV4;11 cells; MV4;11 cells) | IC50 (Daudi cells) | IC50 (NCIH82 cells; NCI-H82 cells)
CCNC(=O)C#Cc1ccc2c(c1)NC(=O)/C2=C(\Nc1ccc(CNCCOCCOCCOCCC(=O)Nc2ccc3c(c2)CN(C2CCC(=O)NC2=O)C3=O)cc1)c1ccccc1 (stereo not drawn) [UB-180972] | 10 to 100 nM | 100 to 1000 nM | 100 to 1000 nM | – | – | –
O=C1CCC(N2Cc3cc(C#CCCNCCOCCOCCOCCn4cc([C@]5(Cc6cccc(Nc7nccs7)n6)CC[C@@H](Oc6cccc(Cl)c6F)CC5)nn4)ccc3C2=O)C(=O)N1 (stereo partly drawn) [UB-180973] | 100 to 1000 nM | > 1000 nM | > 1000 nM | – | – | –
O=C1CCC(N2Cc3c(C#CCCNCCOCCOCCOCCn4cc(-c5ccc(Nc6ncc7c(n6)-c6ccc(Cl)cc6C(c6c(F)cccc6F)=NC7)cc5)nn4)cccc3C2=O)C(=O)N1 (stereo not drawn) [UB-180974] | 100 to 1000 nM | > 1000 nM | > 1000 nM | – | – | –
O=C1CCC(N2Cc3c(C#CCCOCCN[C@H]4CC[C@H](n5cc(-c6ccc(Nc7ncc8c(n7)-c7ccc(Cl)cc7C(c7c(F)cccc7F)=NC8)cc6)nn5)CC4)cccc3C2=O)C(=O)N1 (stereo partly drawn) [UB-180975] | > 1000 nM | > 1000 nM | > 1000 nM | – | – | –
O=C1CCC(N2Cc3cc(NC(=O)CNCCOCCOCCOCCn4cc(-c5ccc(Nc6ncc7c(n6)-c6ccc(Cl)cc6C(c6c(F)cccc6F)=NC7)cc5)nn4)ccc3C2=O)C(=O)N1 (stereo not drawn) [UB-180976] | 100 to 1000 nM | > 1000 nM | > 1000 nM | – | – | –
O=C1CCC(N2Cc3cc(NC(=O)CCOCCOCCN[C@H]4CC[C@@H](n5cc(-c6ccc(Nc7ncc8c(n7)-c7ccc(Cl)cc7C(c7c(F)cccc7F)=NC8)cc6)nn5)CC4)ccc3C2=O)C(=O)N1 (stereo partly drawn) [UB-180981] | > 1000 nM | > 1000 nM | > 1000 nM | – | – | –
O=C1CCC(N2Cc3cc(NC(=O)CCCCCCCNCCCn4cc(-c5ccc(Nc6ncc7c(n6)-c6ccc(Cl)cc6C(c6c(F)cccc6F)=NC7)cc5)nn4)ccc3C2=O)C(=O)N1 (stereo not drawn) [UB-180982] | 100 to 1000 nM | > 1000 nM | > 1000 nM | – | – | –
O=C1CCC(N2Cc3cc(NC(=O)CCCCCCCNCCn4cc(-c5ccc(Nc6ncc7c(n6)-c6ccc(Cl)cc6C(c6c(F)cccc6F)=NC7)cc5)nn4)ccc3C2=O)C(=O)N1 (stereo not drawn) [UB-180983] | 10 to 100 nM | 100 to 1000 nM | 100 to 1000 nM | – | – | –
O=C1CCC(N2Cc3c(NC(=O)CCCCCCCNCCCn4cc(-c5ccc(Nc6ncc7c(n6)-c6ccc(Cl)cc6C(c6c(F)cccc6F)=NC7)cc5)nn4)cccc3C2=O)C(=O)N1 (stereo not drawn) [UB-180987] | > 1000 nM | > 1000 nM | > 1000 nM | – | – | –
O=C1CCC(N2Cc3c(NC(=O)CCCCCCCN[C@H]4CC[C@@H](n5cc(-c6ccc(Nc7ncc8c(n7)-c7ccc(Cl)cc7C(c7c(F)cccc7F)=NC8)cc6)nn5)CC4)cccc3C2=O)C(=O)N1 (stereo partly drawn) [UB-180988] | > 1000 nM | > 1000 nM | > 1000 nM | – | – | –
O=C1CCC(N2Cc3cc(NC(=O)CCCCCCCN[C@H]4CC[C@@H](n5cc(-c6ccc(Nc7ncc8c(n7)-c7ccc(Cl)cc7C(c7c(F)cccc7F)=NC8)cc6)nn5)CC4)ccc3C2=O)C(=O)N1 (stereo partly drawn) [UB-180989] | > 1000 nM | > 1000 nM | > 1000 nM | – | – | –
O=C1CCC(N2Cc3c(NC(=O)CCCCCCCCCNCCn4cc(-c5ccc(Nc6ncc7c(n6)-c6ccc(Cl)cc6C(c6c(F)cccc6F)=NC7)cc5)nn4)cccc3C2=O)C(=O)N1 (stereo not drawn) [UB-180990] | 100 to 1000 nM | > 1000 nM | > 1000 nM | – | – | –
O=C1CCC(N2Cc3cc(NC(=O)CCNCCOCCOCCn4cc(-c5ccc(Nc6ncc7c(n6)-c6ccc(Cl)cc6C(c6c(F)cccc6F)=NC7)cc5)nn4)ccc3C2=O)C(=O)N1 (stereo not drawn) [UB-180991] | 100 to 1000 nM | > 1000 nM | > 1000 nM | – | – | –
O=C1CCC(N2Cc3cc(NC(=O)CCNCCOCCOCCn4cc([C@]5(Cc6cccc(Nc7nccs7)n6)CC[C@@H](Oc6cccc(Cl)c6F)CC5)nn4)ccc3C2=O)C(=O)N1 (stereo partly drawn) [UB-180994] | 100 to 1000 nM | > 1000 nM | > 1000 nM | – | – | –
O=C1CCC(N2Cc3cc(NC(=O)CCCCCCCCCNCCn4cc([C@]5(Cc6cccc(Nc7nccs7)n6)CC[C@@H](Oc6cccc(Cl)c6F)CC5)nn4)ccc3C2=O)C(=O)N1 (stereo partly drawn) [UB-180995] | > 1000 nM | > 1000 nM | > 1000 nM | – | – | –
O=C1CCC(N2Cc3c(NC(=O)CCCCCCCCCN[C@H]4CC[C@@H](n5cc(-c6ccc(Nc7ncc8c(n7)-c7ccc(Cl)cc7C(c7c(F)cccc7F)=NC8)cc6)nn5)CC4)cccc3C2=O)C(=O)N1 (stereo partly drawn) [UB-180996] | > 1000 nM | > 1000 nM | > 1000 nM | – | – | –
O=C1CCC(N2Cc3c(NC(=O)CCCCCCCCCN[C@H]4CC[C@@H](n5cc(-c6ccc(Nc7ncc8c(n7)-c7ccc(Cl)cc7C(c7c(F)cccc7F)=NC8)cc6)nn5)CC4)cccc3C2=O)C(=O)N1 (stereo partly drawn) [UB-180997] | – | – | – | > 1000 nM | > 1000 nM | > 1000 nM
O=C1CCC(N2Cc3cc(NC(=O)CCNCCCOCCCCn4cc(-c5ccc(Nc6ncc7c(n6)-c6ccc(Cl)cc6C(c6c(F)cccc6F)=NC7)cc5)nn4)ccc3C2=O)C(=O)N1 (stereo not drawn) [UB-181000] | > 1000 nM | > 1000 nM | > 1000 nM | – | – | –
O=C1CCC(N2Cc3cc(NC(=O)CCNCCCOCCCCn4cc([C@]5(Cc6cccc(Nc7nccs7)n6)CC[C@@H](Oc6cccc(Cl)c6F)CC5)nn4)ccc3C2=O)C(=O)N1 (stereo partly drawn) [UB-181001] | > 1000 nM | > 1000 nM | > 1000 nM | – | – | –
O=C1CCC(N2Cc3c(NC(=O)CCCCCCCCCNCCn4cc([C@]5(Cc6cccc(Nc7nccs7)n6)CC[C@@H](Oc6cccc(Cl)c6F)CC5)nn4)cccc3C2=O)C(=O)N1 (stereo partly drawn) [UB-181002] | > 1000 nM | > 1000 nM | > 1000 nM | – | – | –
O=C1CCC(N2Cc3c(NC(=O)CCNCCOCCOCCn4cc([C@]5(Cc6cccc(Nc7nccs7)n6)CC[C@@H](Oc6cccc(Cl)c6F)CC5)nn4)cccc3C2=O)C(=O)N1 (stereo partly drawn) [UB-181003] | 100 to 1000 nM | > 1000 nM | > 1000 nM | – | – | –
O=C1CCC(N2Cc3cc(NC(=O)CCOCCOCC(O)COCCn4cc(-c5ccc(Nc6ncc7c(n6)-c6ccc(Cl)cc6C(c6c(F)cccc6F)=NC7)cc5)nn4)ccc3C2=O)C(=O)N1 (stereo not drawn) [UB-181005] | – | > 1000 nM | – | > 1000 nM | – | > 1000 nM
O=C1CCC(N2Cc3cc(NC(=O)CCOCCOCCOCCN[C@H]4CC[C@@H](NC(=O)c5ccc(Nc6ncc7c(n6)-c6ccc(Cl)cc6C(c6c(F)cccc6F)=NC7)cc5)CC4)ccc3C2=O)C(=O)N1 (stereo partly drawn) [UB-181006] | > 1000 nM | > 1000 nM | > 1000 nM | – | – | –
NC(COCCCCCCCC(=O)Nc1ccc2c(c1)CN(C1CCC(=O)NC1=O)C2=O)Cn1cc(-c2ccc(Nc3ncc4c(n3)-c3ccc(Cl)cc3C(c3c(F)cccc3F)=NC4)cc2)nn1 (stereo not drawn) [UB-181007] | 100 to 1000 nM | 100 to 1000 nM | > 1000 nM | – | – | –
O=C1CCC(N2Cc3cc(NC(=O)CNCCCOCCCCCn4cc(-c5ccc(Nc6ncc7c(n6)-c6ccc(Cl)cc6C(c6c(F)cccc6F)=NC7)cc5)nn4)ccc3C2=O)C(=O)N1 (stereo not drawn) [UB-181008] | 100 to 1000 nM | 100 to 1000 nM | > 1000 nM | – | – | –
O=C1CCC(N2Cc3cc(NC(=O)CNCCCOCCCCCn4cc([C@]5(Cc6cccc(Nc7nccs7)n6)CC[C@@H](Oc6cccc(Cl)c6F)CC5)nn4)ccc3C2=O)C(=O)N1 (stereo partly drawn) [UB-181009] | 100 to 1000 nM | > 1000 nM | > 1000 nM | – | – | –
O=C1CCC(N2Cc3cc(C#CCCOCCOCCOCCNC4CCC(n5cc(-c6ccc(Nc7ncc8c(n7)-c7ccc(Cl)cc7C(c7c(F)cccc7F)=NC8)cc6)nn5)CC4)ccc3C2=O)C(=O)N1 (stereo not drawn) [UB-181010] | 100 to 1000 nM | > 1000 nM | > 1000 nM | – | – | –
O=C1CCC(N2Cc3cc(NC(=O)CNCCCCOCCCCn4cc(-c5ccc(Nc6ncc7c(n6)-c6ccc(Cl)cc6C(c6c(F)cccc6F)=NC7)cc5)nn4)ccc3C2=O)C(=O)N1 (stereo not drawn) [UB-181011] | 100 to 1000 nM | 10 to 100 nM | > 1000 nM | – | – | –
O=C1CCC(N2Cc3cc(C#CCCNCCOCCOCCn4cc(-c5ccc(Nc6ncc7c(n6)-c6ccc(Cl)cc6C(c6c(F)cccc6F)=NC7)cc5)nn4)ccc3C2=O)C(=O)N1 (stereo not drawn) [UB-181012] | 100 to 1000 nM | > 1000 nM | > 1000 nM | – | – | –
